From patent US6007823A, “Simmondsin concentrate from jojoba” (The United States of America as represented by the …, priority 1998, dated 1999)

Experiments:
chickens = conditions: Cokeleare et al. 1995; cited from earlier work
mice = conditions: Cokeleare et al. 1995; cited from earlier work
rats = conditions: Cokeleare et al. 1995; cited from earlier work
[1] = Solubility of didemethyl simmondsin in absolute ethanol; format: physicochemical
Procedure: DWE, 1 gram, was stirred 30 min with 20 ml of either acetone, acetonitrile,chloroform, methanol, water, ethanol, isopropanol, 95/5 isopropanol/water or 5/95 methanol/chloroform. Supernatant was filtered, dried, weighed, and analyzed for simmondsin and analogues. […] Both the amount of simmondsins extracted and their enrichment in the extract are important in choosing a selective solvent. Therefore, selectivity was calculated as enrichment times concentration for each component, simmondsin, simmondsin ferulate, demethylsimmondsin and didemethyl simmondsin as well as the total for all four components and plotted against solvent composition and solvent to solute ratio. For simmondsin, selectivity or SIMM-- X=[(concentration of simmondsin in extract)/(concentration of simmondsin in DWE)][weight of simmondsin in extract/weight of simmondsin in DWE].

[2] = statement without test; cited from earlier work

## CO[C@H]1[C@@H](OC)C[C@@H](O[C@@H]2O[C@H](CO)[C@@H](O)[C@H](O)[C@H]2O)/C(=C\C#N)[C@@H]1O [simmondsin]
chickens
  Food intake: reduces food intake
mice
  Food intake: reduces food intake
rats
  Food intake: reduces food intake

## N#CC=C1C(OC2OC(CO)C(O)C(O)C2O)CC(O)C(O)C1O (centres unmarked) [didemethyl simmondsin]
[1]
  Solubility in absolute ethanol: very limited
[2]
  Bioactivity: non-bioactive
